Data set [1] in a line: Particle size of nanoparticle suspension after small scale high energy milling (microscopy, laser light diffraction). It is filed as physicochemical.
The conditions of data set [2]: PVP K29/32 and SLS 5:2:0.05, 6000 rpm. As to the method:
The mixture was milled in a NanoMill™ (Elan Drug Delivery, Inc.). Using a media load of 100% at the maximum rpm of 6000 maximized the energy input.
Further calculations were based on a bulk density of 0.61 g/ml for PolyMill™ 500 μ media (Dow Chemical) and a void volume of 40%. Since the amounts were low and mixing difficult, PVP and SLS were prepared as 20% and 5% stock solutions, respectively. The calculations for milling in a 10 mL, 18 mL, and 26 mL milling chambers are summarized in the following chart: […]

A short description of data set [3]: Quality of milled dispersion by photomicrography. It counts as physicochemical. The procedure:
Analysis of resultant particle size was via photomicrography.
[…] The composition was then milled in a 10 mL chamber of a NanoMill™.

[4] abbreviates: 10 mL chamber, 25 mg naproxen, after 1 hr.

Read-outs that look alike come from different tables or passages of the source.

In the case of `COc1ccc2cc([C@H](C)C(=O)O)ccc2c1` [Naproxen], the “Particle Size” value was 159 nm in data set [1] (50 mg milled, 15 min milling time) and 147 nm in data set [1] (200 mg milled, 60 min milling time). Moreover, the “mean diameter of nanoparticle suspension” value in data set [1] (<50 mg of drug milled 15 min, small-volume high energy mill, unimodal distribution) is given as “less than 200 nm”. Moreover, in data set [2] (setting [4]), the “mean particle size (bimodal peak)” value came to 1496 nm. In addition, the “median particle size (bimodal peak)” value in data set [2] (setting [4]) is given as 354 nm. Moreover, the “single peak mean particle size” value in data set [2] (18 mL chamber, 45 mg naproxen) is 314 nm; in data set [2] (26 mL chamber, 65 mg naproxen) it was 630 nm. The dispersion quality result in data set [3] (5 mg, 10 mL chamber, PVP K29/32 and SLS 5:2:0.05) is “well dispersed nano-suspension”; in data set [3] (25 mg, 10 mL chamber, 15 min), “reasonable naproxen dispersion”; in data set [3] (25 mg, 18 mL chamber, 15 min), “reasonable naproxen dispersion”; in data set [3] (25 mg, 18 mL chamber, 30 min) it was “over-milled and aggregated”; in data set [3] (25 mg, 26 mL chamber, 5 min), “excellent homogeneity”; in data set [3] (25 mg, 26 mL chamber, 15 min), “clearly degenerating”.

As to `CCOC(=O)CCCCCOC(=O)c1c(I)c(NC(C)=O)c(I)c(NC(C)=O)c1I` [Photogen, 6-ethoxy-6-oxohexyl-3,5-bis(acetamido)-2,4,6-triiodobenzoate], the resultant particle size in data set [3] (10 mg, Pluronic F-108 at 5:2, 10 mL chamber, 5 to 30 min) is given as “predominantly sub-micron”.
